# Test results: US12644099B2, “Methods for making T cell compositions” (2seventy bio, Inc., priority 2014, dated 2026)
# “Also recorded” adds a separate entry of the source.
# Experiments:
# anti-BCMA CAR T cells = assay: CD62L expression on anti-BCMA CAR T cells by flow cytometry at the end of culture with inhibitor; format: cell-based; details: ten days of culture with IL-2 and optimized dose of inhibitor; three normal donors
# Method: CAR T cells were cultured with either MK-2206 or triciribine phosphate—TCN (AKT inhibitors) or ZSTK474 (PI3K inhibitor). CAR T cells specific for B cell maturation antigen (BCMA) were used in these set of experiments. CAR T cell cultures were performed using a system directly scalable to large clinical manufacturing processes. […] 2×10^8 transducing units of lentivirus encoding anti-BCMA CARs were added one day after culture initiation. […] At the end of culture, the anti-BCMA CAR T cells were interrogated for phenotype. Expression of CD62L on anti-BCMA CAR T cells was assessed by flow cytometry at the end of culture. Anti-BCMA CAR T cells were specifically identified using recombinant human BCMA-IgG Fc conjugated to PE. CD62L expression was determined with a co-stain using an antibody specific to CD62L. […] (FIG. 3).
# [1] = test system: multiple myeloma tumors (RPMI-8226); assay: Anti-tumor activity of cultured anti-BCMA CAR T cells in sub cutaneous multiple myeloma tumor model; format: in vivo, mice; details: 100 mm^3 sub cutaneous RPMI-8226 tumors; 1×10^6 CAR-positive cells infused
# Method: Anti-BCMA CAR T cells treated with MK-2206, TCN, or ZSTK474 as described in Example 3 were tested to evaluate whether increased CD62L expression was associated with increased anti-tumor activity. […] Animals with 100 mm^3 sub cutaneous multiple myeloma tumors (RPMI-8226) were infused with equivalent CAR T cell doses (1×10^6 CAR-positive cells).
# T cells [2] = assay: T cell proliferation (CellTrace Violet dilution, flow cytometry) of PBMC-derived T cells cultured with AKT inhibitor; format: cell-based
# Method: The purpose of this experiment was to determine the effect of Akt inhibitors on T cell proliferation. The impact of MK-2206 (Selleckchem) on T cell proliferation was assessed by measuring T cell division. Peripheral blood mononuclear cells (PBMC) are a heterogeneous cellular population containing T cells. PBMC were harvested from normal donors and labeled with a fluorescent dye (CellTrace® Violet, Molecular Probes), whose intensity is progressively diluted by a factor of two with each cell division. The labeled PBMCs were used as a source of cells for T cell expansion. […] The impact of MK-2206 on cell division was assayed by evaluating CellTrace Violet dilution with flow cytometry after the addition of 0.025 μM, 0.074 μM, 0.222 μM, 0.67 μM, or 2.0 μM, MK-2206 to the T cultures at day 0. […] A pairwise t test was performed on all day seven cultures; (each concentration of MK-2206 was compared to 0 μM MK-2206: the cultures were not statistically different at the p≤0.05 level).
# T cells [3] = assay: CD62L expression on T cells treated with MK-2206; format: cell-based
# Method: The purpose of this experiment was to determine the effect of Akt inhibitors on T cell markers for T cell potency. The impact of MK-2206 (Selleckchem) on T cell potency was assessed by measuring CD62L expression in the T cell cultures manufactured in Example 1. Mouse models have shown that CD62L expression identifies potent T cells; T cells with greater anti-tumor efficacy after adoptive transfer. […] FIG. 2. A pairwise T test was performed on all day seven cultures (each concentration of MK-2206 was compared to 0 μM MK-2206: *p<0.05, **p<0.01).
# Daudi tumor = assay: Anti-tumor activity of cultured anti-BCMA CAR T cells in aggressive Daudi tumor model; format: in vivo
# Excerpt: Daudi tumor cells express a low level of BCMA protein and can be effectively treated using anti-BCMA CAR T cells.
# RPMI-8226 = assay: Persistence of anti-BCMA CAR T cells: RPMI-8226 tumor rechallenge; format: in vivo, mice; details: rechallenged 13 days later with RPMI-8226 on the opposite flank after complete regression
# Method: Persistence of anti-BCMA CAR T cells was evaluated by re-challenging tumors in mice that had complete regression.
SMILES,CD62L expression on anti-BCMA CAR T cells compared to cultures with IL-2 alone (anti-BCMA CAR T cells),anti-tumor activity of anti-BCMA CAR T cells cultured with the agent [1],"T cell division / proliferation compared to vehicle or non-treated controls (T cells [2]; seven days of culture, 0.025-2.0 μM MK-2206 with IL-2, pairwise t test p≤0.05)","T cell division / proliferation compared to no treatment control (T cells [2]; three days of culture, 0.025-2.0 μM MK-2206 with IL-2, CD3 and CD28 antibodies)","CD62L expression on T cells compared to no treatment control (T cells [3]; seven days of culture in the presence of IL-2, all concentrations tested)",CD62L expression on T cells compared to no treatment control (T cells [3]; three days of culture with MK-2206),anti-tumor activity (Daudi tumor progression) of anti-BCMA CAR T cells cultured with the agent (Daudi tumor),tumor outgrowth / engraftment after rechallenge in animals treated with anti-BCMA CAR T cells cultured with the agent (RPMI-8226)
"CN1N=C(N)c2cn([C@@H]3O[C@H](COP(=O)(O)O)[C@@H](O)[C@H]3O)c3ncnc1c23 [TCN, triciribine phosphate]",not,did not show an anti-tumor response; also recorded: completely abolished any anti-tumor responses,,,,,,
NC1(c2ccc(-c3nc4ccn5c(=O)[nH]nc5c4cc3-c3ccccc3)cc2)CCC1 [MK-2206],significantly higher CD62L expression,,no statistically significant differences in T cell division; also recorded: not substantially different,did not substantially decrease T cell division; also recorded: only slightly decreased,significantly increases CD62L expression at all concentrations; also recorded: significant higher levels of CD62L expression,not substantially different,complete tumor regression,
FC(F)c1nc2ccccc2n1-c1nc(N2CCOCC2)nc(N2CCOCC2)n1 [ZSTK474],significantly higher CD62L expression,,,,,,complete tumor regression,none of the animals treated with ZSTK474-cultured anti-BCMA CAR T cells had any evidence of tumor engraftment
